Reference: paper PMC5218480 (PLoS ONE, 2017)

Test system: MV-4-11 cells
Assay: Gene expression microarray analysis (Affymetrix PrimeView) and GSEA
Assay type: cell-based, human
Set-up: RFU PODN (11730768_x_at) / Fold change /veh PODN (11730768_x_at) / RFU LINC00158 (11744669_a_at) / Fold change /veh LINC00158 (11744669_a_at) / RFU DUSP10 (11751237_a_at) / Fold change /veh DUSP10 (11751237_a_at) / RFU ID3 (11757404_x_at) / Fold change /veh ID3 (11757404_x_at) / RFU PLEKHG5 (11737974_s_at) / Fold change /veh PLEKHG5 (11737974_s_at) / RFU LRRC4B (11730491_at) / Fold change /veh LRRC4B (11730491_at) / RFU GIMAP4 (11747438_a_at) / Fold change /veh GIMAP4 (11747438_a_at) / RFU KRT8 (11758183_x_at) / Fold change /veh KRT8 (11758183_x_at) / RFU CNN1 (11734310_a_at) / Fold change /veh CNN1 (11734310_a_at) / RFU VPS37D (11726825_at) / Fold change /veh VPS37D (11726825_at) / RFU C10orf10 (11716522_x_at) / Fold change /veh C10orf10 (11716522_x_at) / RFU KIR2DL2 /// KIR2DL4 /// KIR2DL5A /// KIR2DL5B /// KIR2DS1 /// KIR2DS2 /// KIR2DS3 /// KIR2DS4 /// KIR3DL3 /// KIR3DL3 /// KIR3DS1 (11738374_at) / Fold change /veh KIR2DL2 /// KIR2DL4 /// KIR2DL5A /// KIR2DL5B /// KIR2DS1 /// KIR2DS2 /// KIR2DS3 /// KIR2DS4 /// KIR3DL3 /// KIR3DL3 /// KIR3DS1 (11738374_at) / RFU C1QL1 (11718748_at) / Fold change /veh C1QL1 (11718748_at) / RFU TMPRSS4 (11747572_a_at) / Fold change /veh TMPRSS4 (11747572_a_at) / RFU HAMP (11756126_x_at) / Fold change /veh HAMP (11756126_x_at) / RFU RNFT2 (11725882_a_at) / Fold change /veh RNFT2 (11725882_a_at) / RFU NR4A2 (11747474_a_at) / Fold change /veh NR4A2 (11747474_a_at) / RFU ABCC12 (11746883_a_at) / Fold change /veh ABCC12 (11746883_a_at) / RFU TMEM136 (11760407_x_at) / Fold change /veh TMEM136 (11760407_x_at) / RFU CLDN22 /// WWC2 (11732394_at) / Fold change /veh CLDN22 /// WWC2 (11732394_at) / RFU HLA-DPB1 (11760878_x_at) / Fold change /veh HLA-DPB1 (11760878_x_at) / RFU SPINT1 (11716480_a_at) / Fold change /veh SPINT1 (11716480_a_at) / RFU GAP43 (11754022_s_at) / Fold change /veh GAP43 (11754022_s_at) / RFU A4GNT (11735810_at) / Fold change /veh A4GNT (11735810_at) / RFU PRB3 (11715151_x_at) / Fold change /veh PRB3 (11715151_x_at) / RFU TUBB4B (11761932_at) / Fold change /veh TUBB4B (11761932_at) / RFU CAPN14 (11732068_a_at) / Fold change /veh CAPN14 (11732068_a_at) / RFU TMCC2 (11721928_a_at) / Fold change /veh TMCC2 (11721928_a_at) / RFU IRGQ (11745062_a_at) / Fold change /veh IRGQ (11745062_a_at) / RFU FAM174B (11720279_a_at) / Fold change /veh FAM174B (11720279_a_at) / RFU TMPRSS4 (11748680_a_at) / Fold change /veh TMPRSS4 (11748680_a_at) / RFU FAM212B (11763350_a_at) / Fold change /veh FAM212B (11763350_a_at) / RFU PLEKHG5 (11743358_a_at) / Fold change /veh PLEKHG5 (11743358_a_at) / RFU ZSCAN30 (11745921_a_at) / Fold change /veh ZSCAN30 (11745921_a_at) / RFU CMKLR1 (11741424_a_at) / Fold change /veh CMKLR1 (11741424_a_at) / RFU LOC101060620 /// MAPK8IP1 (11723275_at) / Fold change /veh LOC101060620 /// MAPK8IP1 (11723275_at) / RFU SPTSSB (11747773_x_at) / Fold change /veh SPTSSB (11747773_x_at) / RFU PRSS12 (11739890_at) / Fold change /veh PRSS12 (11739890_at) / RFU BIN1 (11741810_x_at) / Fold change /veh BIN1 (11741810_x_at) / RFU WNT11 (11732464_a_at) / Fold change /veh WNT11 (11732464_a_at) / RFU C10orf10 (11716521_a_at) / Fold change /veh C10orf10 (11716521_a_at) / RFU C5orf56 (11738089_at) / Fold change /veh C5orf56 (11738089_at) / RFU CYB561 (11721691_x_at) / Fold change /veh CYB561 (11721691_x_at) / RFU ANKRD19P (11752326_a_at) / Fold change /veh ANKRD19P (11752326_a_at) / RFU OR2T12 /// OR2T33 /// OR2T8 (11738714_s_at) / Fold change /veh OR2T12 /// OR2T33 /// OR2T8 (11738714_s_at) / RFU VCAN (11748164_a_at) / Fold change /veh VCAN (11748164_a_at) / RFU JSRP1 (11732532_at) / Fold change /veh JSRP1 (11732532_at) / RFU KRTAP10-11 (11738290_x_at) / Fold change /veh KRTAP10-11 (11738290_x_at) / RFU MYO3A (11730013_a_at) / Fold change /veh MYO3A (11730013_a_at) / RFU EBF3 (11725865_a_at) / Fold change /veh EBF3 (11725865_a_at) / RFU CAMK2N1 (11719241_x_at) / Fold change /veh CAMK2N1 (11719241_x_at) / RFU C5orf56 (11738088_a_at) / Fold change /veh C5orf56 (11738088_a_at) / RFU OLFML3 (11715873_a_at) / Fold change /veh OLFML3 (11715873_a_at) / RFU LOC100653217 /// NTM (11731650_a_at) / Fold change /veh LOC100653217 /// NTM (11731650_a_at) / RFU MAPK11 (11762145_a_at) / Fold change /veh MAPK11 (11762145_a_at) / RFU FIZ1 (11724087_x_at) / Fold change /veh FIZ1 (11724087_x_at) / RFU OASL (11726364_x_at) / Fold change /veh OASL (11726364_x_at) / RFU SOX15 (11748057_x_at) / Fold change /veh SOX15 (11748057_x_at) / RFU CD79A (11719716_a_at) / Fold change /veh CD79A (11719716_a_at) / RFU HIST1H1D (11736915_at) / Fold change /veh HIST1H1D (11736915_at) / RFU CASKIN2 (11723855_a_at) / Fold change /veh CASKIN2 (11723855_a_at) / RFU LOC730098 (11760151_x_at) / Fold change /veh LOC730098 (11760151_x_at) / RFU OR4N2 (11742367_at) / Fold change /veh OR4N2 (11742367_at) / RFU PRRT2 (11749266_a_at) / Fold change /veh PRRT2 (11749266_a_at) / RFU SNX32 (11753110_a_at) / Fold change /veh SNX32 (11753110_a_at) / RFU CDHR5 (11726645_a_at) / Fold change /veh CDHR5 (11726645_a_at) / RFU RCAN1 (11760418_a_at) / Fold change /veh RCAN1 (11760418_a_at) / RFU FAM167A (11723789_a_at) / Fold change /veh FAM167A (11723789_a_at) / RFU FAM26E (11764081_at) / Fold change /veh FAM26E (11764081_at) / RFU ISYNA1 (11749810_s_at) / Fold change /veh ISYNA1 (11749810_s_at) / RFU ACY1 (11761880_at) / Fold change /veh ACY1 (11761880_at) / RFU 11764098_at / Fold change /veh 11764098_at / RFU SAMD14 (11745864_x_at) / Fold change /veh SAMD14 (11745864_x_at) / RFU NPB (11741838_a_at) / Fold change /veh NPB (11741838_a_at) / RFU TMPRSS6 (11731388_a_at) / Fold change /veh TMPRSS6 (11731388_a_at) / RFU KRTAP10-2 (11738614_at) / Fold change /veh KRTAP10-2 (11738614_at) / RFU ARHGAP8 /// PRR5-ARHGAP8 (11727945_x_at) / Fold change /veh ARHGAP8 /// PRR5-ARHGAP8 (11727945_x_at) / RFU KRTAP5-7 /// NADSYN1 (11734609_at) / Fold change /veh KRTAP5-7 /// NADSYN1 (11734609_at) / RFU RASL12 (11751679_a_at) / Fold change /veh RASL12 (11751679_a_at) / RFU CDKN2B (11736163_a_at) / Fold change /veh CDKN2B (11736163_a_at) / RFU PRF1 (11729649_at) / Fold change /veh PRF1 (11729649_at) / RFU, ZNF638 /// ZNF638-IT1 / Fold change vs veh, ZNF638 /// ZNF638-IT1 / RFU, PANK3 / Fold change vs veh, PANK3 / RFU, SH3YL1 / Fold change vs veh, SH3YL1 / RFU, ZEB2 / Fold change vs veh, ZEB2 / RFU, NRIP1 / Fold change vs veh, NRIP1 / RFU, PTTG1IP / Fold change vs veh, PTTG1IP / RFU, CAPN2 / Fold change vs veh, CAPN2 / RFU, MED14 / Fold change vs veh, MED14 / RFU, SNORA58 / Fold change vs veh, SNORA58 / RFU, C1orf63 / Fold change vs veh, C1orf63 / RFU, LRRFIP1 / Fold change vs veh, LRRFIP1 / RFU, NDUFAF7 / Fold change vs veh, NDUFAF7 / RFU, SLC12A2 / Fold change vs veh, SLC12A2 / RFU, IBTK / Fold change vs veh, IBTK / RFU, ESF1 / Fold change vs veh, ESF1 / Fold change vs veh, TMEM50B / RFU, TAOK1 / Fold change vs veh, TAOK1 / RFU, ACBD3 / Fold change vs veh, ACBD3 / RFU, TMA16 / Fold change vs veh, TMA16 / RFU, RWDD3 / Fold change vs veh, RWDD3 / RFU, BCAT1 / Fold change vs veh, BCAT1 / RFU, EDEM3 / Fold change vs veh, EDEM3 / RFU, TMEM33 / Fold change vs veh, TMEM33 / RFU, WDR75 / Fold change vs veh, WDR75 / RFU, AHCTF1 / Fold change vs veh, AHCTF1 / RFU, TFRC / Fold change vs veh, TFRC / RFU, ZDHHC17 / Fold change vs veh, ZDHHC17 / RFU, NOM1 / Fold change vs veh, NOM1 / RFU, ARL8B / Fold change vs veh, ARL8B / RFU, ZBTB11 / Fold change vs veh, ZBTB11 / RFU, TAMM41 / Fold change vs veh, TAMM41 / RFU, KIAA1704 /// LOC100996395 / Fold change vs veh, KIAA1704 /// LOC100996395 / RFU, ING1 / Fold change vs veh, ING1 / RFU, TRMT61B / Fold change vs veh, TRMT61B / RFU, FUBP3 / Fold change vs veh, FUBP3 / RFU, TP53 / Fold change vs veh, TP53 / RFU, TNKS2 / Fold change vs veh, TNKS2 / RFU, ZFP14 / Fold change vs veh, ZFP14 / RFU, ACTR2 / Fold change vs veh, ACTR2 / RFU, PPP3R1 / Fold change vs veh, PPP3R1 / RFU, PIK3R1 / Fold change vs veh, PIK3R1 / RFU, HNRNPA1 / Fold change vs veh, HNRNPA1 / RFU, RNF170 / Fold change vs veh, RNF170 / RFU, ZNF28 / Fold change vs veh, ZNF28 / RFU, RNGTT / Fold change vs veh, RNGTT / RFU, OGT / Fold change vs veh, OGT / RFU, BRD1 / Fold change vs veh, BRD1 / RFU, MARS / Fold change vs veh, MARS / RFU, ZNF655 / Fold change vs veh, ZNF655 / RFU, FAHD1 / Fold change vs veh, FAHD1 / RFU, BDP1 / Fold change vs veh, BDP1 / RFU, LRRCC1 / Fold change vs veh, LRRCC1 / RFU, ARID1A / Fold change vs veh, ARID1A / RFU, ZNF146 / Fold change vs veh, ZNF146 / RFU, ZNF330 / Fold change vs veh, ZNF330 / RFU, GPN3 / Fold change vs veh, GPN3 / RFU, C9orf123 / Fold change vs veh, C9orf123 / RFU, N4BP2L2 / Fold change vs veh, N4BP2L2 / RFU, ARFIP1 / Fold change vs veh, ARFIP1 / RFU, FAM179B / Fold change vs veh, FAM179B / RFU, BCL10 / Fold change vs veh, BCL10 / RFU, UHRF1BP1L / Fold change vs veh, UHRF1BP1L / RFU, BET1 / Fold change vs veh, BET1 / RFU, CNOT2 / Fold change vs veh, CNOT2 / RFU, ZNF268 / Fold change vs veh, ZNF268 / Fold change vs veh, ZNF507 / RFU, DGCR2 / Fold change vs veh, DGCR2 / RFU, WDSUB1 / Fold change vs veh, WDSUB1 / Fold change vs veh, HSP90B1 /// MIR3652 / RFU, ADSS / Fold change vs veh, ADSS / RFU, GK / Fold change vs veh, GK / RFU, ZNF148 / Fold change vs veh, ZNF148 / RFU, TAF9 / Fold change vs veh, TAF9 / RFU, SLC1A5 / Fold change vs veh, SLC1A5 / RFU, SLMO2 / Fold change vs veh, SLMO2 / RFU, ABCC4 / Fold change vs veh, ABCC4 / RFU, LOC101060439 /// RAP1B / Fold change vs veh, LOC101060439 /// RAP1B / RFU, RFX7 / Fold change vs veh, RFX7 / RFU, GTPBP10 / Fold change vs veh, GTPBP10 / RFU, CNEP1R1 / Fold change vs veh, CNEP1R1 / RFU, BIVM-ERCC5 /// ERCC5 / Fold change vs veh, BIVM-ERCC5 /// ERCC5 / RFU, ILF3 / Fold change vs veh, ILF3 / RFU 11762660_at / Fold change /veh 11762660_at / RFU VCAN (11757783_s_at) / Fold change /veh VCAN (11757783_s_at) / RFU DDX43 (11728927_at) / Fold change /veh DDX43 (11728927_at) / RFU KRT8 (11758188_x_at) / Fold change /veh KRT8 (11758188_x_at) / RFU NKD1 (11759106_at) / Fold change /veh NKD1 (11759106_at) / RFU SRD5A1 (11742802_a_at) / Fold change /veh SRD5A1 (11742802_a_at) / RFU TPSAB1 /// TPSB2 (11721975_s_at) / Fold change /veh TPSAB1 /// TPSB2 (11721975_s_at) / RFU GSTM3 (11746129_a_at) / Fold change /veh GSTM3 (11746129_a_at) / RFU IL23R (11737362_x_at) / Fold change /veh IL23R (11737362_x_at) / RFU TMEM51 (11727254_a_at) / Fold change /veh TMEM51 (11727254_a_at) / RFU PIWIL2 (11732686_x_at) / Fold change /veh PIWIL2 (11732686_x_at) / RFU ORM1 (11744905_x_at) / Fold change /veh ORM1 (11744905_x_at) / RFU CCDC152 (11743942_at) / Fold change /veh CCDC152 (11743942_at) / RFU ECM1 (11717891_a_at) / Fold change /veh ECM1 (11717891_a_at) / RFU IL23R (11748794_a_at) / Fold change /veh IL23R (11748794_a_at) / RFU TNFAIP8L3 (11732012_x_at) / Fold change /veh TNFAIP8L3 (11732012_x_at) / RFU MBOAT4 (11741988_at) / Fold change /veh MBOAT4 (11741988_at) / RFU 11764193_at / Fold change /veh 11764193_at / RFU TMEM53 (11763286_at) / Fold change /veh TMEM53 (11763286_at) / RFU MAGEB2 (11727129_at) / Fold change /veh MAGEB2 (11727129_at) / RFU TMEM200A (11744735_a_at) / Fold change /veh TMEM200A (11744735_a_at) / RFU CCDC152 (11751479_a_at) / Fold change /veh CCDC152 (11751479_a_at) / RFU FAM211A (11726209_a_at) / Fold change /veh FAM211A (11726209_a_at) / RFU RGS16 (11746705_a_at) / Fold change /veh RGS16 (11746705_a_at) / RFU VCAN (11755009_s_at) / Fold change /veh VCAN (11755009_s_at) / RFU RHOB (11743442_s_at) / Fold change /veh RHOB (11743442_s_at) / RFU RGS16 (11720943_a_at) / Fold change /veh RGS16 (11720943_a_at) / RFU RGS16 (11720944_at) / Fold change /veh RGS16 (11720944_at) / RFU, VPS4B / Fold change vs veh, VPS4B / RFU, CREB1 / Fold change vs veh, CREB1 / RFU, DNAJC13 / Fold change vs veh, DNAJC13 / RFU, GNAQ / Fold change vs veh, GNAQ / RFU, CDK5R1 / Fold change vs veh, CDK5R1 / RFU, ZRANB3 / Fold change vs veh, ZRANB3 / RFU, CUL4A / Fold change vs veh, CUL4A / RFU, CCNY / Fold change vs veh, CCNY / RFU, UFL1 / Fold change vs veh, UFL1 / RFU, COG3 / Fold change vs veh, COG3 / RFU, DIAPH2 / Fold change vs veh, DIAPH2 / RFU, SKA2 / Fold change vs veh, SKA2 / RFU, AFF3 / Fold change vs veh, AFF3 / RFU, LMF1 / Fold change vs veh, LMF1 / RFU, IPO11 / Fold change vs veh, IPO11 / RFU, DFFB / Fold change vs veh, DFFB / RFU, FOXP1 / Fold change vs veh, FOXP1 / RFU, CARD8 / Fold change vs veh, CARD8 / RFU, STRN3 / Fold change vs veh, STRN3 / RFU, ADK / Fold change vs veh, ADK / RFU, RASSF2 / Fold change vs veh, RASSF2 / RFU, WIPF1 / Fold change vs veh, WIPF1 / RFU, LARP1B / Fold change vs veh, LARP1B / RFU, RASA1 / Fold change vs veh, RASA1 / RFU, RB1 / Fold change vs veh, RB1 / RFU, PPFIA1 / Fold change vs veh, PPFIA1 / RFU, MAT2A / Fold change vs veh, MAT2A / RFU, CCT5 / Fold change vs veh, CCT5 / RFU, WDR92 / Fold change vs veh, WDR92 / RFU, CUX1 / Fold change vs veh, CUX1 / RFU, TTC7A / Fold change vs veh, TTC7A / RFU, TMEM135 / Fold change vs veh, TMEM135 / RFU, DEPTOR / Fold change vs veh, DEPTOR / RFU, CPM / Fold change vs veh, CPM / RFU, DNAJB6 / Fold change vs veh, DNAJB6 / RFU, CACNA2D3 / Fold change vs veh, CACNA2D3 / RFU, DTX4 / Fold change vs veh, DTX4 / RFU, TFCP2 / Fold change vs veh, TFCP2 / RFU, GMCL1 /// GMCL1P1 / Fold change vs veh, GMCL1 /// GMCL1P1 / RFU, AEBP2 / Fold change vs veh, AEBP2 / RFU, SNHG1 /// SNORD22 /// SNORD25 /// SNORD26 /// SNORD27 /// SNORD28 /// SNORD29 /// SNORD31 / Fold change vs veh, SNHG1 /// SNORD22 /// SNORD25 /// SNORD26 /// SNORD27 /// SNORD28 /// SNORD29 /// SNORD31 / Fold change (Aza/veh), C12orf56 (ProbeSet 11735607_a_at) / Fold change (ACY-1035/veh), C12orf56 (ProbeSet 11735607_a_at) / Fold change (Aza/veh), FGFR1OP (ProbeSet 11751329_s_at) / Fold change (ACY-1035/veh), FGFR1OP (ProbeSet 11751329_s_at) / Fold change (Aza/veh), VPS36 (ProbeSet 11739960_a_at) / Fold change (ACY-1035/veh), VPS36 (ProbeSet 11739960_a_at) / RFU SYPL1 (11715823_x_at) / Fold change /veh SYPL1 (11715823_x_at) / RFU IGFBP7 (11715501_s_at) / Fold change /veh IGFBP7 (11715501_s_at) / RFU REEP3 (11722064_at) / Fold change /veh REEP3 (11722064_at) / RFU IGLL1 (11728026_x_at) / Fold change /veh IGLL1 (11728026_x_at): dose or concentration left out as unconfirmed
Details: ProbeSet 11749551_a_at; LIST B

Nc1ncn([C@@H]2O[C@H](CO)[C@@H](O)[C@H]2O)c(=O)n1 [azacitidine]
Fold change vs veh, RNGTT: 1.02
